Key:
[1] = system: subjects with diabetic or idiopathic gastroparesis; assay: DIGEST I: weekly GRS total score; details: 30 mg/day, ITT
Description: Gastroparesis Rating Score is a patient reported outcome that measures 9 symptoms: (1) nausea, (2) bloating, (3) postprandial fullness, (4) early satiety, (5) vomiting, (6) abdominal pain, (7) epigastric burning, (8) gastric reflux with or without burning, and (9) bowel movements, using up to 27 questions assessing the severity of the symptom, the daily frequency of the symptom, the length of time on a daily basis of the symptom, and whether the symptom continues over a 24-hour period.
(§1) The total duration of study participation for each completed subject was approximately 19 weeks including: • Screening period: up to 5 weeks, including one week baseline period; • Treatment period: 12 weeks; and • Follow-up: 2 weeks.
During the treatment period, subjects were instructed to take 1 capsule of study drug once daily approximately 30 minutes prior to eating at approximately the same time each morning and to record the time of drug ingestion in the electronic diary. Subjects also completed the GCS1-24H and GRS on a daily basis using an electronic diary. […] Subjects returned to the study center for safety and efficacy assessments as detailed in the Schedule of Study Procedures.
A daily proprietary patient reported outcome (PRO) tool was used to assess GP symptoms, the Gastroparesis Rating Scale (GRS), developed according to the current FDA PRO guidance. The GRS covers the following cardinal symptom domains: (1) nausea, (2) vomiting, (3) postprandial fullness/early satiety, (4) bloating, (5) upper abdominal pain, (6) gastric reflux/burning, and (7) bowel movements. The GRS symptom domains may be also categorized or grouped into Factor 1 (fullness, early satiety, bloating, upper abdominal pain, and epigastric burning) and Factor 2 (nausea and vomiting).
The primary endpoint evaluation time point was Week 4 with sensitivity analyses conducted at Weeks 8 and 12.
LS Mean Differences in each subgroup are calculated based on repeated measures mixed effect model with change from baseline in weekly GRS total score as dependent variable, treatment, gastroparesis type (diabetic vs. idiopathic), GE test time (historical vs. prospective), baseline GRS total score, time, subgroup variable, interaction effect of treatment by time, baseline GRS total score by time, treatment by subgroup variable, time by subgroup variable and treatment by time by subgroup variable as fixed effect, a random effect of subject within site, using an unstructured covariance structure.

[2] = system: subjects with diabetic or idiopathic gastroparesis; assay: DIGEST I Phase 2b: weekly GCSI-24H total score;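 also: Patient-reported daily electronic-diary symptom index rating nausea/vomiting, postprandial fullness/early satiety and bloating, averaged weekly, once-daily oral capsule taken before breakfast, baseline from 1-week pretreatment period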
Description: as §1
To qualify for entry into the Baseline Period of the study, subjects had to have: a) a composite score of 2 and <5 points on nausea, bloating, feeling excessively full after meals, and not able to finish a normal-sized meal on the GCS1-2W; b) a score of ≥3 points for at least 2 of these 4 symptoms on the GCS1-2W at Screening; and c) delayed gastric emptying as determined by either a 4-hour ^99mTc GES or GEBT. If a subject failed either the GES or GEBT at Screening, then a second gastric emptying test could have been performed during the Screening Period using the GEBT in order to qualify for the study. Subjects who were eligible for further study participation completed the 2 daily PRO measures (the Gastroparesis Rating Scale [GRS] and a daily version of the GCSI, designated the Gastroparesis Cardinal Symptoms Index—24-Hour Recall [GCS1-24H] in this study) over a 7-day period to establish baselines.
After the 1-week Baseline Period, subjects were required to have a 7-day mean score of ≥2.5 and <5 points on the GCS.1-24H at Day 1 to be eligible for entry. Eligible subjects completed the Patient Assessment of Upper Gastrointestinal Quality of Life (PAG1-QOL) questionnaire to establish baseline QOL metrics at Day 1.
During the treatment period, subjects were instructed to take 1 capsule of study drug once daily approximately 30 minutes prior to eating at approximately the same time each morning and to record the time of drug ingestion in the electronic diary. Subjects also completed the GCS1-24H and GRS on a daily basis using an electronic diary. At specified times, subjects also completed the PAG1-QOL questionnaire to assess QOL metrics and the Treatment Satisfaction Questionnaire. In addition, subjects and clinicians completed the Overall Treatment Effect (OTE) and Overall Gastroparesis Severity (OGS) instruments to serve as anchor instruments for the psychometric evaluation of the GRS measure. Subjects returned to the study center for safety and efficacy assessments as detailed in the Schedule of Study Procedures.
A total score was used to assess the GCSI PRO, which comprised a mean of 3 means symptoms domain score.
Each individual domain was evaluated. […] LS Mean Differences in each subgroup are calculated based on repeated measures mixed effect model with change from baseline in weekly GCSI-24H total score as dependent variable, treatment, gastroparesis type (diabetic vs. idiopathic), GE test time (historical vs. prospective), baseline GCSI 24H total score, time, subgroup variable, interaction effect of treatment by time, baseline GCSI 24H total score by time, treatment by subgroup variable, time by subgroup variable and treatment by time by subgroup variable as fixed effect, a random effect of subject within site, using an unstructured covariance structure. For GCSI baseline subgroup analysis, baseline 24H total score is replaced with GCSI baseline categorical variable.

[3] = 5 mg/day, Week 4, diabetic patients
[4] = 5 mg/day, Week 4, idiopathic patients
[5] = 5 mg/day, Week 8, diabetic patients
[6] = 5 mg/day, Week 8, idiopathic patients
[7] = 5 mg/day, Week 12, diabetic patients
[8] = 5 mg/day, Week 12, idiopathic patients
[9] = 5 mg/day, Week 14 (off therapy), diabetic patients
[10] = 5 mg/day, Week 14 (off therapy), idiopathic patients
[11] = 15 mg/day, Week 4, diabetic patients
[12] = 15 mg/day, Week 4, idiopathic patients
[13] = 15 mg/day, Week 8, diabetic patients
[14] = 15 mg/day, Week 8, idiopathic patients
[15] = 15 mg/day, Week 12, diabetic patients
[16] = 15 mg/day, Week 12, idiopathic patients
[17] = 15 mg/day, Week 14 (off therapy), diabetic patients
[18] = 15 mg/day, Week 14 (off therapy), idiopathic patients
[19] = 30 mg/day, Week 4, diabetic patients
[20] = 30 mg/day, Week 4, idiopathic patients
[21] = 30 mg/day, Week 8, diabetic patients
[22] = 30 mg/day, Week 12, diabetic patients
[23] = 30 mg/day, Week 12, idiopathic patients
[24] = 30 mg/day, Week 14 (off therapy), diabetic patients
[25] = 30 mg/day, Week 14 (off therapy), idiopathic patients

With “1-isopropyl-2-oxo-1,2-dihydroquinoline-3-carboxylic acid {(1S,3R,5R)-8-[(R)-2-hydroxy-3-(methanesulfonyl-methyl-amino)propyl]-8-azabicyclo[3.2.1]oct-3-yl}amide [Velusetrag]” the “LS Mean change from baseline, weekly GRS total score” value ([1]; Week 8) was −1.1 (0.13) points, the “LS Mean Difference vs placebo, weekly GRS total score” value ([1]; Week 12) was −0.1 (0.19) points and the “LS Mean change from baseline, weekly GRS total score” value ([1]; Week 12) was −1.3 (0.13) points. For the same substance, the “LS Mean Difference vs placebo, weekly GCSI-24H total score” value ([2]; 5 mg/day, Week 4, ITT) was −0.4 points, the “LS Mean change from baseline, weekly GCSI-24H total score” value ([2]; 5 mg/day, Week 4, ITT) was −1.5 (0.13) points and the “LS Mean Difference vs placebo, weekly GCSI-24H total score” value ([2]; 5 mg/day, Week 4, ITT, listed as VEL) was −0.4 (0.18) points. The “LS Mean Difference vs placebo, weekly GCSI-24H total score” value [2, 3] was −0.2 (0.25) points, the “LS Mean change from baseline, weekly GCSI-24H total score” value [2, 3] was −1.5 (0.18) points and the “LS Mean Difference vs placebo, weekly GCSI-24H total score” value [2, 4] was −0.6 (0.26) points. The “LS Mean change from baseline, weekly GCSI-24H total score” value [2, 4] was −1.5 (0.18) points, the “LS Mean Difference vs placebo, weekly GCSI-24H total score” value ([2]; 5 mg/day, Week 8, ITT) was −0.3 (0.20) points and the “LS Mean change from baseline, weekly GCSI-24H total score” value ([2]; 5 mg/day, Week 8, ITT) was −1.6 (0.14) points. The “LS Mean Difference vs placebo, weekly GCSI-24H total score” value [2, 5] was −0.1 (0.27) points, the “LS Mean change from baseline, weekly GCSI-24H total score” value [2, 5] was −1.6 (0.19) points and the “LS Mean Difference vs placebo, weekly GCSI-24H total score” value [2, 6] was −0.6 (0.28) points. The “LS Mean change from baseline, weekly GCSI-24H total score” value [2, 6] was −1.6 (0.20) points, the “LS Mean Difference vs placebo, weekly GCSI-24H total score” value ([2]; 5 mg/day, Week 12, ITT) was −0.3 points and the “LS Mean change from baseline, weekly GCSI-24H total score” value ([2]; 5 mg/day, Week 12, ITT) was −1.7 (0.15) points. The “LS Mean Difference vs placebo, weekly GCSI-24H total score” value ([2]; 5 mg/day, Week 12, ITT, listed as VEL) was −0.3 (0.21) points, the “LS Mean Difference vs placebo, weekly GCSI-24H total score” value [2, 7] was −0.0 (0.29) points and the “LS Mean change from baseline, weekly GCSI-24H total score” value [2, 7] was −1.7 (0.21) points. The “LS Mean Difference vs placebo, weekly GCSI-24H total score” value [2, 8] was −0.6 (0.30) points, the “LS Mean change from baseline, weekly GCSI-24H total score” value [2, 8] was −1.7 (0.21) points and the “LS Mean Difference vs placebo, weekly GCSI-24H total score” value [2, 9] was −0.2 (0.29) points. The “LS Mean change from baseline, weekly GCSI-24H total score” value [2, 9] was −1.7 (0.20) points, the “LS Mean Difference vs placebo, weekly GCSI-24H total score” value [2, 10] was −0.4 (0.30) points and the “LS Mean change from baseline, weekly GCSI-24H total score” value [2, 10] was −1.4 (0.21) points. The “LS Mean Difference vs placebo, weekly GCSI-24H total score” value ([2]; 15 mg/day, Week 4, ITT) was −0.1 (0.19) points, the “LS Mean change from baseline, weekly GCSI-24H total score” value ([2]; 15 mg/day, Week 4, ITT) was −1.2 (0.14) points and the “LS Mean Difference vs placebo, weekly GCSI-24H total score” value [2, 11] was 0.1 points. The “LS Mean change from baseline, weekly GCSI-24H total score” value [2, 11] was −1.2 points, the “LS Mean Difference vs placebo, weekly GCSI-24H total score” value [2, 12] was −0.3 (0.28) points and the “LS Mean change from baseline, weekly GCSI-24H total score” value [2, 12] was −1.2 (0.20) points. The “LS Mean Difference vs placebo, weekly GCSI-24H total score” value ([2]; 15 mg/day, Week 8, ITT) was −0.1 (0.21) points, the “LS Mean change from baseline, weekly GCSI-24H total score” value ([2]; 15 mg/day, Week 8, ITT) was −1.3 (0.15) points and the “LS Mean Difference vs placebo, weekly GCSI-24H total score” value [2, 13] was 0.3 points. The “LS Mean change from baseline, weekly GCSI-24H total score” value [2, 13] was −1.2 points, the “LS Mean Difference vs placebo, weekly GCSI-24H total score” value [2, 14] was −0.4 (0.30) points and the “LS Mean change from baseline, weekly GCSI-24H total score” value [2, 14] was −1.5 (0.22) points. The “LS Mean Difference vs placebo, weekly GCSI-24H total score” value ([2]; 15 mg/day, Week 12, ITT) was −0.0 (0.22) points, the “LS Mean change from baseline, weekly GCSI-24H total score” value ([2]; 15 mg/day, Week 12, ITT) was −1.4 (0.16) points and the “LS Mean Difference vs placebo, weekly GCSI-24H total score” value [2, 15] was 0.4 points. For the same substance, the “LS Mean change from baseline, weekly GCSI-24H total score” value [2, 15] was −1.3 points, the “LS Mean Difference vs placebo, weekly GCSI-24H total score” value [2, 16] was −0.4 (0.32) points and the “LS Mean change from baseline, weekly GCSI-24H total score” value [2, 16] was −1.5 (0.24) points. The “LS Mean Difference vs placebo, weekly GCSI-24H total score” value [2, 17] was 0.4 points, the “LS Mean change from baseline, weekly GCSI-24H total score” value [2, 17] was −1.1 points and the “LS Mean Difference vs placebo, weekly GCSI-24H total score” value [2, 18] was −0.1 (0.31) points. For the same substance, the “LS Mean change from baseline, weekly GCSI-24H total score” value [2, 18] was −1.2 (0.23) points, the “LS Mean Difference vs placebo, weekly GCSI-24H total score” value ([2]; 30 mg/day, Week 4, ITT) was 0.1 (0.19) points and the “LS Mean change from baseline, weekly GCSI-24H total score” value ([2]; 30 mg/day, Week 4, ITT) was −1.0 (0.13) points. The “LS Mean Difference vs placebo, weekly GCSI-24H total score” value [2, 19] was 0.2 points, the “LS Mean change from baseline, weekly GCSI-24H total score” value [2, 19] was −1.0 points and the “LS Mean Difference vs placebo, weekly GCSI-24H total score” value [2, 20] was −0.1 (0.26) points. For the same substance, the “LS Mean change from baseline, weekly GCSI-24H total score” value [2, 20] was −1.0 (0.18) points, the “LS Mean Difference vs placebo, weekly GCSI-24H total score” value ([2]; 30 mg/day, Week 8, ITT) was −0.0 (0.20) points and the “LS Mean change from baseline, weekly GCSI-24H total score” value ([2]; 30 mg/day, Week 8, ITT) was −1.3 (0.14) points. The “LS Mean Difference vs placebo, weekly GCSI-24H total score” value [2, 21] was 0.2 points, the “LS Mean change from baseline, weekly GCSI-24H total score” value [2, 21] was −1.3 points and the “LS Mean Difference vs placebo, weekly GCSI-24H total score” value ([2]; 30 mg/day, Week 8, idiopathic patients) was −0.2 (0.29) points. The “LS Mean Difference vs placebo, weekly GCSI-24H total score” value ([2]; 30 mg/day, Week 12, ITT) was −0.1 (0.22) points, the “LS Mean change from baseline, weekly GCSI-24H total score” value ([2]; 30 mg/day, Week 12, ITT) was −1.5 (0.15) points and the “LS Mean Difference vs placebo, weekly GCSI-24H total score” value [2, 22] was 0.1 points. The “LS Mean change from baseline, weekly GCSI-24H total score” value [2, 22] was −1.6 points, the “LS Mean Difference vs placebo, weekly GCSI-24H total score” value [2, 23] was −0.2 (0.30) points and the “LS Mean change from baseline, weekly GCSI-24H total score” value [2, 23] was −1.3 (0.21) points. For the same substance, the “LS Mean Difference vs placebo, weekly GCSI-24H total score” value [2, 24] was −0.1 points, the “LS Mean change from baseline, weekly GCSI-24H total score” value [2, 24] was −1.7 points and the “LS Mean Difference vs placebo, weekly GCSI-24H total score” value [2, 25] was 0.0 (0.29) points. The “LS Mean change from baseline, weekly GCSI-24H total score” value [2, 25] was −1.0 (0.20) points.

Reference: patent US11642339B2 (THERAVANCE BIOPHARMA R&D IP, LLC, priority 2017, dated 2023)
